The assay deals with T1, human c-Kit (Homo sapiens, UniProt P10721).
T1 construct: human c-Kit (Thr544-Val976); purchased Cell Signaling Technologies; host or cells: baculovirus expression system
The experiment in a line: c-Kit kinase assay (HTScan Receptor Kinase Assay Kit, DELFIA). The note with it: 200 μM ATP. In kind it is biochemical. As to the method: (f) An In Vitro Assay which Determines the Ability of a Test Compound to Inhibit c-Kit Kinase.
The ability of compounds to inhibit c-Kit tyrosine kinase activity was assayed using HTScan™ Receptor Kinase Assay Kits (Cell Signaling Technologies, Danvers, Mass.). c-Kit tyrosine kinase is obtained in partially purified form from GST-kinase fusion protein which is produced using a baculovirus expression system from a construct expressing human c-Kit (Thr544-Val976) with an amino-terminal GST tag. The protein was purified by one-step affinity chromatography using glutathione-agarose. An anti-phosphotyrosine monoclonal antibody, P-Tyr-100, is used to detect phosphorylation of biotinylated substrate peptide KDR (Tyr996). Enzymatic activity was tested in 60 mM HEPES, 5 mM MgCl2 5 mM MnCl2 200 μM ATP, 1.25 mM DTT, 3 μM Na3VO4, 1.5 mM peptide, and 50 ng c-Kit. Bound antibody was detected using the DELFIA system (PerkinElmer, Wellesley, Mass.) consisting of DELFIA® Europium-labeled Anti-mouse IgG (PerkinElmer, #AD0124), DELFIA® Enhancement Solution (PerkinElmer, #1244-105), and a DELFIA® Streptavidin coated, 96-well Plate (PerkinElmer, AAAND-0005). Fluorescence was measured on a WALLAC Victor 2 plate reader and reported as relative fluorescence units (RFU). Data were plotted using GraphPad Prism (v4.0a) and IC50's were calculated using a sigmoidal dose response curve fitting algorithm.
Test compounds were dissolved in dimethylsulphoxide (DMSO) to give a 20 mM working stock concentration. Each assay was set up as follows: 100 μl of 10 mM ATP is added to 1.25 ml 6 mM substrate peptide. The mixture was diluted with dH20 to 2.5 ml to make 2×ATP/substrate cocktail ([ATP]=[…], [substrate]=3 mM). The enzyme was immediately transferred from −80° C. to ice. The enzyme was allowed to thaw on ice. The mixture was microcentrifuged briefly at 4° C. to bring liquid to the bottom of the vial and returned immediately to ice. 10 μl of DTT (1.25 mM) was added to 2.5 ml of 4× HTScan™ Tyrosine Kinase Buffer (240 mM HEPES pH 7.5, 20 mM MgCl2, 20 mM MnCl, 12 mM NaVO3) to make DTT/Kinase buffer. 1.25 ml of DTT/Kinase buffer was transferred to enzyme tube to make a 4× reaction cocktail ([enzyme]=4 ng/μL in 4× reaction cocktail). 12.5 μl of the 4× reaction cocktail was incubated with 12.5 μl/well of prediluted compound of interest (usually around 10 μM) for 5 minutes at room temperature. 25 μl of 2×ATP/substrate cocktail is added to 25 μl/well preincubated reaction cocktail/compound. The reaction plate was incubated at room temperature for 30 minutes. 50 μl/well Stop Buffer (50 mM EDTA, pH 8) was added to stop the reaction. […] 615 nm fluorescence emission is detected using an appropriate Time-Resolved Plate Reader.

T1 sequence (P10721 544-976): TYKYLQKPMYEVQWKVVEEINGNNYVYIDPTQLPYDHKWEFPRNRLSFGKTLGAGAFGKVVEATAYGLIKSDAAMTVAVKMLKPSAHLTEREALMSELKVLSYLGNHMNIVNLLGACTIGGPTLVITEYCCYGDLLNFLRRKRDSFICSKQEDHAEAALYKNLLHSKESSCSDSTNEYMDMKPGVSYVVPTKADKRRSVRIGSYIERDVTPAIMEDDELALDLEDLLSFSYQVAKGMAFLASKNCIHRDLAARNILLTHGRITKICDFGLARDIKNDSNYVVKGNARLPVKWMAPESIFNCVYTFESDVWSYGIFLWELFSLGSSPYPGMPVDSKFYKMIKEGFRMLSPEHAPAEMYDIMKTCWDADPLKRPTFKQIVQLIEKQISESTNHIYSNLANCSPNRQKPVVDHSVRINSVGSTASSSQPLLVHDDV

For `COc1cc2c(Oc3ccc4[nH]c(C)cc4c3F)ncnc2cc1OCCCCCCC(=O)NO` [Compound 11, 7-(4-(4-fluoro-2-methyl-1H-indol-5-yloxy)-6-methoxyquinazolin-7-yloxy)-N-hydroxyheptanamide], the IC50 – broadly, the concentration that gives 50% inhibition – was less than 100 nM.
Compound `COc1cc2c(Nc3ccc4[nH]c(C)cc4c3F)ncnc2cc1OCCCCCC(=O)NO` [Compound 13, 6-(4-(4-fluoro-2-methyl-1H-indol-5-ylamino)-6-methoxyquinazolin-7-yloxy)-N-hydroxyhexanamide] registered an IC50 of 100 to 1000 nM.
The value for `COc1cc2c(Nc3ccc4[nH]c(C)cc4c3F)ncnc2cc1OCCCCCCC(=O)NO` [Compound 14, 7-(4-(4-fluoro-2-methyl-1H-indol-5-ylamino)-6-methoxy-quinazolin-7-yloxy)-N-hydroxyheptanamide] was 100 to 1000 nM; that for `Cc1cc2c(F)c(Nc3ncnc4cc(OCCCN5CCCC5)c(OCCCCCCC(=O)NO)cc34)ccc2[nH]1` [Compound 20, 7-(4-(4-Fluoro-2-methyl-1H-indol-5-ylamino)-7-(3-(pyrrolidin-1-yl)propoxy)quinazolin-6-yloxy)-N-hydroxyheptanamide] was 100 to 1000 nM.
